Reference: patent US20070129410A1, “Octahydrophenanthrene hydrazinde derivatives useful as glucocorticoid receptor modulators” (Pfizer Inc., priority 2003, published 2007)

Assays:
[1] = test system: IL-8 (Interleukin-8) production; experiment: Glucocorticoid inhibition of IL-1 induced IL-8 production in SW1353 human chondrosarcoma cells; assay type: cell-based; details: 20 ng/ml IL-1 beta, 24 hours after IL-1 addition, ELISA, read-out: IC50, inhibition of IL-8 expression
Protocol: (§1) This assay, the glucocorticoid inhibition of IL-1 (Interleukin-1) induced MMP-1 (Matrix Metalloproteinase-1) and IL-8 (Interleukin-8) production in human chondrosarcoma cells, is conducted as follows: SW1353 human chondrosarcoma cells (obtained from ATCC) from passage 12 through passage 19 are used in a 96 well format assay. Cells are plated at confluence into 96 well plates in DMEM (Dulbecco's Modified Eagle Medium) with 10% fetal bovine serum and incubated at 37° C., 5% CO2. After 24 hours, serum containing media is removed and replaced with 200 ul/well DMEM containing 1 mg/L insulin, 2 g/L lactalbumin hydrosylate, and 0.5 mg/L ascorbic acid and returned to incubation at 37° C., 5% CO2. […] IL-8 production is assessed using the Quantikine human IL-8 ELISA kit from R&D Systems (D8050) on samples diluted 60-fold in RD5P Calibrator Diluent, following the manufacturer's protocol. The percent of the average IL-1 control is determined for the average of each of the triplicate samples following subtraction of the average signal from untreated cells. IC50's are determined from log linear plots of the percent of control versus the concentration of inhibitor. […] MMP-1 production is assessed via the Bio-Trak MMP-1 ELISA kit from Amersham (RPN2610) on 100 ul of neat sample following the manufacturer's protocol. […]

[2] = test system: MMP-1 (Matrix Metalloproteinase-1) production; experiment: Glucocorticoid inhibition of IL-1 induced MMP-1 production in SW1353 human chondrosarcoma cells; assay type: cell-based; details: 20 ng/ml IL-1 beta, 72 hours after IL-1 addition, ELISA, read-out: IC50, inhibition of MMP1 expression
Protocol: as §1

What does the source list for `C[C@@H]1C[C@H]2[C@@H]3CCC4=CC(=O)C=C[C@]4(C)[C@@]3(F)[C@@H](O)C[C@]2(C)[C@@]1(O)C(=O)CO` [Dexamethasone]?
IC50 [1]: 5 nM; IC50 [2]: 5 nM
